From PMC5853558, “De novo identification of lipid II binding lipopeptides with antibacterial activity against vancomycin-resistant bacteria” (Chemical Science, 2017)
In brackets after ≈: the same amount, converted by molar mass. *1 amine or outer side, *2 acyl side, *3 side chain or, on linkers, in order; H or OH if unused. Where a SMILES comes first, the peptide text is derived from it. Bridges are numbered along the chain shown (N, C = ends). [ ]: non-standard residue; d: D form. The star is where a group is joined. TBMB = c1c(C[*:1])cc(C[*:3])cc1C[*:2]; NH(CH2)11CH3 = CCCCCCCCCCCCN*; NHDecyl = CCCCCCCCCCN*; NHHex = CCCCCCN*

How the values were obtained:
M. luteus (NCTC2665) = test: microbe, parasite or virus in culture; assay type: cell-based, Micrococcus luteus; conditions: for MIC M. luteus: Supplemental table S7, P8 with varying lipids, broth microdilution
Description: (§1) Section 4 Biological and biochemical experiments
(§2) 4.1 Minimum inhibitory concentration assay
(§3) MIC values were determined by using the broth microdilution method. Peptides were dissolved first in DMSO and diluted with broth so that the final peptide concentration was 1024 µg/ml and the DMSO concentration was 4%. Peptide serial dilutions were made in TSB in a polypropylene 96-wells plate using 50 µl volumes. An overnight culture of the organism of interest was diluted to and OD600 of 0.01 and grown until they reach 0.5. The culture was then diluted to 1 x 10^6 CFU/ml and 50 µl of this suspension was added to each well. The highest concentrations were then 512 µg/ml peptide and 2% DMSO. The plates were incubated at the preferred growth temperature of the organism that was used and 250 rpm. […] When […]
(§4) determining the MICs of the lipidated peptides, the lipopeptides were first dissolved in DMSO and diluted with TSB so that the peptide concentration was 128 µg/ml and the DMSO concentration was 4%. After inoculation the highest peptide concentration evaluated was 64 µg/ml and the DMSO concentration was 2%. A DMSO control was tested for each strain to ensure the DMSO did not affect the growth of the particular strain. […]

E. faecium (VRE155) = test: microbe, parasite or virus in culture; assay type: cell-based, Enterococcus faecium; conditions: for MIC VRE E155: Supplemental table S7, P8 with varying lipids, broth microdilution
Description: as §1, §2, §3, §4

Sheep blood = test: Hemolysis assay; assay type: cell-based
Description: Sheep blood in Alsever’s solution (2 mL) was diluted with PBS (13 mL) and centrifuged (2,000 RPM, 5 min). The supernatant was discarded and the cells were washed with another 13 mL of PBS and centrifuged. Washing was continued until the supernatant was clear. After the final wash the supernatant was discarded and the packed cells were kept on ice. Serial dilutions of each peptide were made in 50 µl PBS with the highest tested concentration 64 µg/mL in PBS, 2%
DMSO. The packed cells (150 µL) were suspended in PBS (10 mL) and 50 µL of this suspension was added to each well. A well plate column containing 0.1% triton x-100 in DI water was used as the 100% lysis control and a second column with PBS (with 2% DMSO) served as the 0% lysis control. After incubation at 37°C for 1h the plates were centrifuged (2,000 RPM, 5 min) and 25 µL of the supernatant was added to 100 µL DI water in a flat-bottom 96-wells plate (polystyrene). […]

B. subtilis (168) = test: microbe, parasite or virus in culture; assay type: cell-based
Description: as §1, §2, §3, §4

S. epidermidis (1587) = test: microbe, parasite or virus in culture; assay type: cell-based
Description: as §1, §2, §3, §4

S. pyogenes (5448) = test: microbe, parasite or virus in culture; assay type: cell-based; conditions: Table 2; broth microdilution in TSB, 16 h, read visually; highest tested 64 µg/ml
Description: as §1, §2, §3, §4

E. faecium (E980) = test: microbe, parasite or virus in culture; assay type: cell-based, Enterococcus faecium
Description: as §1, §2, §3, §4

E. faecium (VRE0321) = test: microbe, parasite or virus in culture; assay type: cell-based, Enterococcus faecium; conditions: Table 2; vancomycin-resistant isolate from hospitalized patients; broth microdilution in TSB, 16 h; highest tested 64 µg/ml
Description: as §1, §2, §3, §4

E. faecium (VRE2297) = test: microbe, parasite or virus in culture; assay type: cell-based, Enterococcus faecium
Description: as §1, §2, §3, §4

E. faecium (VRE7391) = test: microbe, parasite or virus in culture; assay type: cell-based, Enterococcus faecium
Description: as §1, §2, §3, §4

[1] = Supplemental table S9, MIC values of Table 2 expressed in µM
[2] = Table 2, broth microdilution in TSB, 16 h, read visually, highest tested 64 µg/ml
[3] = Table 2, vancomycin-resistant isolate from hospitalized patients, broth microdilution in TSB, 16 h, highest tested 64 µg/ml
[4] = Supplemental table S9, vancomycin-resistant isolate, MIC values of Table 2 expressed in µM

Q: With CCCCCCCCCCCCNC(=O)CNC(=O)[C@H]1CSCc2cc3cc(c2)CSC[C@@H](NC(=O)[C@@H](CC(C)C)NC(=O)[C@@H](CC(C)C)NC(=O)[C@@H](CO)NC(=O)[C@@H](CCC(N)=O)NC(=O)[C@@H](CC(C)C)NC(=O)[C@@H](CC(C)C)NC(=O)[C@H](NC(=O)[C@@H](C)N)CSC3)C(=O)N2CCC[C@@H]2C(=O)N[C@H](Cc2ccc(O)cc2)C(=O)N[C@H](CO)C(=O)N[C@H]([C@H](C)O)C(=O)N[C@H](Cc2c[nH]cn2)C(=O)N[C@H](CCCNC(=N)N)C(=O)N1 [Peptide P8-D-C12] (H-[dA][dC][dL][dL][dQ][dS][dL][dL][dC][dP][dY][dS][dT][dH][dR][dC]G-{NH(CH2)11CH3}; linker 2-9-16 via TBMB; N-terminus assumed) as the compound, how does the “MIC M. luteus” value (M. luteus (NCTC2665)) read?
A: 4 to 8 µg/mL

Q: And the “MIC VRE E155” value (E. faecium (VRE155))?
A: 8 µg/mL (≈ 3.73 µM)

Q: And the “Hemolysis 32 µg/ml (after 1 h)” value (Sheep blood; Supplemental table S7, sheep blood cells in PBS, 32 µg/ml, 1 h at 37°C, absorption at 414 nm)?
A: 9%

Q: Which “MIC M. luteus (NCTC2665)” value (M. luteus (NCTC2665); [1]) does the source give for CCCCCCCCCCNC(=O)CNC(=O)[C@H]1CSCc2cc3cc(c2)CSC[C@@H](NC(=O)[C@@H](CC(C)C)NC(=O)[C@@H](CC(C)C)NC(=O)[C@@H](CO)NC(=O)[C@@H](CCC(N)=O)NC(=O)[C@@H](CC(C)C)NC(=O)[C@@H](CC(C)C)NC(=O)[C@H](NC(=O)[C@@H](C)N)CSC3)C(=O)N2CCC[C@@H]2C(=O)N[C@H](Cc2ccc(O)cc2)C(=O)N[C@H](CO)C(=O)N[C@H]([C@H](C)O)C(=O)N[C@H](Cc2c[nH]cn2)C(=O)N[C@H](C)C(=O)N1 [P8-D-(R15A)-C10] (H-[dA][dC][dL][dL][dQ][dS][dL][dL][dC][dP][dY][dS][dT][dH][dA][dC]G-NHDecyl; linker 2-9-16 via TBMB; N-terminus assumed) here?
A: 3.9 µM (≈ 7.93 µg/mL)

Q: What about the “MIC M. luteus (NCTC2665)” value (M. luteus (NCTC2665); Table 2, broth microdilution in TSB, 16 h, read visually, highest tested 64 µg/ml, 2% DMSO) of the same compound?
A: 4 μg mL^–1

Q: What about the “MIC M. luteus (NCTC2665)” value (M. luteus (NCTC2665); Table 2, broth microdilution in TSB, 16 h, read visually, highest tested 64 µg/ml, 2% DMSO, listed as P8-R15A-C10) of the same compound?
A: retained activity

Q: What about the “MIC B. subtilis (168)” value (B. subtilis (168); [1]) of the same compound?
A: > 63.1 µM

Q: And the “MIC B. subtilis (168)” value (B. subtilis (168); [2])?
A: >64 μg mL^–1

Q: And the “MIC S. epidermidis (1587)” value (S. epidermidis (1587); [1])?
A: > 63. 1 µM

Q: And the “MIC S. epidermidis (1587)” value (S. epidermidis (1587); [2])?
A: >64 μg mL^–1

Q: What about the “MIC S. pyogenes (5448)” value (S. pyogenes (5448)) of the same compound?
A: 16 μg mL^–1

Q: What about the “MIC E. faecium (E980)” value (E. faecium (E980); [1]) of the same compound?
A: 63.1 µM (≈ 128 µg/mL)

Q: And the “MIC E. faecium (E980)” value (E. faecium (E980); [2])?
A: 64 μg mL^–1

Q: And the “MIC E. faecium (VRE0321)” value (E. faecium (VRE0321))?
A: 8–16 μg mL^–1

Q: What about the “MIC E. faecium (VRE155)” value (E. faecium (VRE155); [3]) of the same compound?
A: 16 μg mL^–1

Q: And the “MIC E. faecium (VRE2297)” value (E. faecium (VRE2297); [4])?
A: > 63. 1 µM

Q: And the “MIC E. faecium (VRE2297)” value (E. faecium (VRE2297); [3])?
A: >64 μg mL^–1

Q: And the “MIC E. faecium (VRE7391)” value (E. faecium (VRE7391); [4])?
A: > 63. 1 µM

Q: And the “MIC E. faecium (VRE7391)” value (E. faecium (VRE7391); [3])?
A: >64 μg mL^–1

Q: And the Hemolysis (Sheep blood; Supplemental table S9, 1 hour incubation at 37 °C, lipopeptides at 32 µg/mL)?
A: 0%

Q: What about the Hemolysis (Sheep blood; Table 2, sheep blood cells in PBS, lipopeptides at 32 μg mL^–1, 1 hour at 37 °C, absorption at 414 nm, 0.1% triton x-100 = 100% lysis, listed as P8-R15A-C10) of the same compound?
A: completely non-hemolytic

Q: CCCCCCNC(=O)CNC(=O)[C@H]1CSCc2cc3cc(c2)CSC[C@@H](NC(=O)[C@@H](CC(C)C)NC(=O)[C@@H](CC(C)C)NC(=O)[C@@H](CO)NC(=O)[C@@H](CCC(N)=O)NC(=O)[C@@H](CC(C)C)NC(=O)[C@@H](CC(C)C)NC(=O)[C@H](NC(=O)[C@@H](C)N)CSC3)C(=O)N2CCC[C@@H]2C(=O)N[C@H](Cc2ccc(O)cc2)C(=O)N[C@H](CO)C(=O)N[C@H]([C@H](C)O)C(=O)N[C@H](Cc2c[nH]cn2)C(=O)N[C@H](CCCNC(=N)N)C(=O)N1 [Peptide P8-D-C6] (H-[dA][dC][dL][dL][dQ][dS][dL][dL][dC][dP][dY][dS][dT][dH][dR][dC]G-NHHex; linker 2-9-16 via TBMB; N-terminus assumed) was tested. Which “MIC M. luteus” value (M. luteus (NCTC2665)) did it give?
A: 32 µg/mL (≈ 15.5 µM)

Q: And the “MIC VRE E155” value (E. faecium (VRE155))?
A: 16 to 32 µg/mL
